Reference: PubChem BioAssay AID1918942 (Molecular Pharmacology Branch, DTP, NCI, 2023)

Tested on: 743489-274-T-PDC complex spheroid viability
Experiment: Anticancer human tumor 743489-274-T-PDC patient-derived renal cell carcinoma cell line growth inhibition
Conditions: for IC50: curve of first compound; for viability, T/C: stronger effect = lower value
Summary of the method: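 Complex spheroids of tumor cells with HUVEC and human MSCs, exposed to iadademstat combined with other agents. Each agent tested in half-log steps from near clinical Cmax (else 10 microM top), DMSO ≤0.25%.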

[1] = second compound 0.1 µM, first compound 0.00949 µM
[2] = second compound 0.1 µM, first compound 0.03 µM
[3] = second compound 0.1 µM, first compound 0.0949 µM
[4] = second compound 0.1 µM, first compound 0.3 µM
[5] = second compound 0.1 µM, first compound 0.949 µM
[6] = second compound 0.1 µM, first compound 3 µM
[7] = second compound 0.316 µM, first compound 0.00949 µM
[8] = second compound 0.316 µM, first compound 0.03 µM
[9] = second compound 0.316 µM, first compound 0.0949 µM
[10] = second compound 0.316 µM, first compound 0.3 µM
[11] = second compound 0.316 µM, first compound 0.949 µM
[12] = second compound 0.316 µM, first compound 3 µM
[13] = second compound 1 µM, first compound 0.00949 µM
[14] = second compound 1 µM, first compound 0.03 µM
[15] = second compound 1 µM, first compound 0.0949 µM
[16] = second compound 1 µM, first compound 0.3 µM
[17] = second compound 1 µM, first compound 0.949 µM
[18] = second compound 1 µM, first compound 3 µM
[19] = second compound 3.16 µM, first compound 0.00949 µM
[20] = second compound 3.16 µM, first compound 0.03 µM
[21] = second compound 3.16 µM, first compound 0.0949 µM
[22] = second compound 3.16 µM, first compound 0.3 µM
[23] = second compound 3.16 µM, first compound 0.949 µM
[24] = second compound 3.16 µM, first compound 3 µM
[25] = second compound 10 µM, first compound 0.00949 µM
[26] = second compound 10 µM, first compound 0.03 µM
[27] = second compound 10 µM, first compound 0.0949 µM
[28] = second compound 10 µM, first compound 0.3 µM
[29] = second compound 10 µM, first compound 0.949 µM
[30] = second compound 10 µM, first compound 3 µM
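Also: spheroids exposed to compounds for 7 days before readout.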
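For viability, T/C in this document: 100% = DMSO vehicle control wells.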

Compound | IC50 (second compound 0.1 µM) [nM] | IC50 (second compound 0.316 µM) [nM] | IC50 (second compound 1 µM) [nM] | IC50 (second compound 3.16 µM) [nM] | IC50 (second compound 10 µM) [nM] | viability, T/C [1] [%] | viability, T/C [2] [%] | viability, T/C [3] [%] | viability, T/C [4] [%] | viability, T/C [5] [%] | viability, T/C [6] [%] | viability, T/C [7] [%] | viability, T/C [8] [%] | viability, T/C [9] [%] | viability, T/C [10] [%] | viability, T/C [11] [%] | viability, T/C [12] [%] | viability, T/C [13] [%] | viability, T/C [14] [%] | viability, T/C [15] [%] | further results
NS(=O)(=O)OCC1CC(n2ccc3c(NC4CCc5ccccc54)ncnc32)CC1O (stereo not given) + NC1CC1c1ccc(-c2cccc(O)c2)cc1 | > 3000 | > 3000 | > 3000 | > 3000 | > 3000 | 98 | 107 | 127 | 154 | 154 | 134 | 98.3 | 97.4 | 125 | 150 | 134 | 149 | 108 | 111 | 125 | viability, T/C [16]: 152%; viability, T/C [17]: 168%; viability, T/C [18]: 137%; viability, T/C [19]: 96.5%; viability, T/C [20]: 104%; viability, T/C [21]: 122%; viability, T/C [22]: 145%; viability, T/C [23]: 140%; viability, T/C [24]: 130%; viability, T/C [25]: 90%; viability, T/C [26]: 98.6%; viability, T/C [27]: 129%; viability, T/C [28]: 153%; viability, T/C [29]: 150%; viability, T/C [30]: 142%
Nc1ccccc1NC(=O)c1ccc(CNC(=O)OCc2cccnc2)cc1 + NC1CC1c1ccc(-c2cccc(O)c2)cc1 | 678 | 773 | 642 | 1010 | 1320 | 93.2 | 88.5 | 87.5 | 62.6 | 45.8 | 29.2 | 95.7 | 86.8 | 84.5 | 65.8 | 45.5 | 40.3 | 98.6 | 87.5 | 83.4 | viability, T/C [16]: 62.3%; viability, T/C [17]: 43.2%; viability, T/C [18]: 24.6%; viability, T/C [19]: 92.8%; viability, T/C [20]: 84.5%; viability, T/C [21]: 81.6%; viability, T/C [22]: 72.5%; viability, T/C [23]: 49%; viability, T/C [24]: 36.5%; viability, T/C [25]: 95.5%; viability, T/C [26]: 87.5%; viability, T/C [27]: 77.9%; viability, T/C [28]: 70.1%; viability, T/C [29]: 58.4%; viability, T/C [30]: 35.4%
O=C(C=Cc1cccc(S(=O)(=O)Nc2ccccc2)c1)NO + NC1CC1c1ccc(-c2cccc(O)c2)cc1 | 860 | 1010 | 1550 | 915 | 1380 | 107 | 98.5 | 93 | 67.8 | 49.7 | 28.5 | 102 | 93.2 | 88 | 64.9 | 53.1 | 34 | 98.7 | 99.3 | 84.2 | viability, T/C [16]: 84.1%; viability, T/C [17]: 58.8%; viability, T/C [18]: 35.9%; viability, T/C [19]: 98.5%; viability, T/C [20]: 88.1%; viability, T/C [21]: 90.8%; viability, T/C [22]: 69%; viability, T/C [23]: 50.2%; viability, T/C [24]: 24.1%; viability, T/C [25]: 98.9%; viability, T/C [26]: 97%; viability, T/C [27]: 87.8%; viability, T/C [28]: 81.4%; viability, T/C [29]: 56.6%; viability, T/C [30]: 33.9%
